Measured values taken from patent US20240199571A1, “THIOPHENE COMPOUND AND APPLICATION THEREOF” (MEDSHINE DISCOVERY INC., priority 2021, published 2024).
Counter-ions that a name gives are not always drawn. Like-named read-outs stand apart in the source and are kept apart here.

What was measured:
human LSD1 [1] = target: T1, human LSD1 (Homo sapiens (Human), UniProt O60341); assay: Experiment 1A: in vitro LSD1 enzyme activity, enzyme-coupled fluorescence (HRP/Amplex Red), H3K4me peptide 20 μM (Wuhan Heyan); format: biochemical; settings: histone H3K4me peptide 20 μM
Protocol: Experiment 1A: Evaluation of Enzyme Activity
Testing unit: Wuhan Heyan Biomedical Technology Co., Ltd.
The purpose of the assay was to test the in vitro inhibitory activity of the compounds against LSD1. The enzyme used in the assay was human LSD1, and the standard substrate was histone H3K4me peptide (20 μM). The activity of the compounds was determined by the enzyme-coupling fluorescent method by the combined detection of H2O2 generated after the reaction of LSD1 by horseradish peroxidase (HRP) and the fluorescent reagent Amplex Red. Starting from 10 μM, the compounds were 3-fold diluted to detect the IC50 values of the compounds at 10 concentrations. The enzyme and substrate were incubated for 30 minutes before the compound was added to the substrate to start the reaction. Fluorescence detector: EnVision, excitation wavelength: Ex/Em=530/590 nM.

[2] = Experiment 3: pharmacokinetic evaluation in CD-1 mice (IV and oral); format: in vivo; settings: mouse, plasma; for clearance / half-life / Vd: IV 1 mg/kg; for clearance: read-out: Clearance rate CL; for half-life: read-out: Half life T1/2 (IV, h) (converted); for Vd: read-out: Volume of distribution at steady state Vdss; for bioavailability: PO 2 mg/kg vs IV 1 mg/kg, read-out: Bioavailability F (%); for AUC(0-t): PO 2 mg/kg, read-out: Area under drug-time curve AUC0-last PO; for Cmax: single dose, oral 2 mg/kg, read-out: Peak concentration Cmax
Protocol: Experiment 3: Pharmacokinetic Evaluation of Compounds
Experimental purpose: To test the pharmacokinetics of compounds in CD-1 mice in vivo
CD-1 mice (male/female, 7 to 9 weeks old, Shanghai SLAC)
The pharmacokinetic characteristics of the compounds in rodents after intravenous injection and oral administration were tested according to the standard protocol. In the experiment, the candidate compound was formulated into clear solutions, and a single intravenous injection and oral administration were given to mice. The vehicle for intravenous injection and oral administration was a mixed vehicle composed of 10% dimethyl sulfoxide and 90% hydroxypropyl β-cyclodextrin with a content of 10%. In this project, four male/female CD-1 mice were used. Two mice were injected intravenously at a dose of 1 mg/kg, and plasma samples were collected at 0.083, 0.25, 0.5, 1, 2, 4, 8, and 24 hours after administration; the other two were administered orally by gavage at a dose of 2 mg/kg, and plasma samples were collected at 0.25, 0.5, 1, 2, 4, 8, and 24 hours after administration. The samples were centrifuged at 3200 g for 10 minutes at 4° C., and plasma samples were obtained by separating the supernatant. A methanol solution containing internal standard with 20 times the volume of the sample was added thereto to precipitate the protein, and the mixture was centrifuged at 12000 g for 15 minutes at 4° C. 50 μL of the supernatant was taken and transferred to a 96-well plate and centrifuged again. The supernatant was taken for sampling. The plasma concentration was quantitatively analyzed using LC-MS/MS analysis method, and pharmacokinetic parameters, such as peak concentration (Cmax), clearance rate (CL), half-life (T1/2), volume of distribution at steady state (Vdss), area under drug-time curve (AUC0-last), bioavailability (F).

NCI-H1417 cells = assay: Experiment 2: inhibition of NCI-H1417 cell proliferation (CellTiter-Glo, 10 days); format: cell-based; settings: Homo sapiens, 240 h, 10 days incubation
Summary of the method: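 Cells at 1000 per well exposed to 10-point 3-fold dilutions from 10 μM top concentration for 10 days. Viability by CellTiter-Glo luminescence; inhibition normalized to max/min controls, IC50 from four-parameter fit.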

[3] = tested on: human small cell lung cancer NCI-H1417 cell subcutaneous xenograft tumor; assay: Experiment 5: in vivo pharmacodynamic study, NCI-H1417 subcutaneous xenograft tumor in CB17-SCID mice; settings: 10 mg/kg, p.o.; for Mean tumor volume ± SEM (mm^3) (Day 28): day 28 after administration; for TGI (%): tumor volume at day 28
Text: Experiment 5: In Vivo Pharmacodynamic Study of Compounds on CB17-SCID Mouse Model of Human Small Cell Lung Cancer NCI-H1417 Cell Subcutaneous Xenograft Tumor
The purpose of this experiment was to evaluate the in vivo efficacy of the compounds of the present disclosure on CB17-SCID mouse model of human small cell lung cancer NCI-H1417 cell subcutaneous xenograft tumor.
5.2 Experimental Animals: • Species: mice • Strain: CB17-SCID mice • Week age and weight: 6-8 weeks old, 18 to 22 grams • Gender: Female • Supplier: Beijing Vital River Laboratory Animal Technology Co., Ltd.
Human lung cancer cells NCI-H1417 were cultured in vitro in suspension in RPMI 1640 medium with 10% fetal bovine serum, 100 U/mL penicillin, and 100 μg/mL streptomycin at 37° C. in a 5% CO2 cell culture incubator. Routine digestion and passage treatment were performed twice a week. When the number of cells reached the required number, the cells were counted and resuspended in PBS at a density of 10×10^6 cells/200 μL.
0.2 mL of NCI-H1417 tumor cells (containing 10×10^6 cells) suspension (PBS: matrix gel=1:1) was subcutaneously inoculated on the right back of mice, and in pharmacodynamic experiments, on the 16th day after cell inoculation, when the average tumor volume reached 86 mm^3, the subjects were randomly grouped and the administration started.
The experimental vehicle was 5% dimethyl sulfoxide/95% (10% Solutol) solution. Preparation method: 3.8 mL of […] was taken and added to 34.2 mL of double-distilled water, 2 mL of dimethyl sulfoxide was added thereto, and the mixture was mixed well. The test substance was dissolved with the vehicle, prepared as a homogeneous solution of a certain concentration, and stored at 4° C.
The experimental indicator was to examine whether tumor growth was inhibited, delayed, or cured. The tumor diameter was measured twice a week using vernier calipers. The calculation formula of tumor volume is V=0.5a×b^2, wherein a and b represent the long and short diameters of the tumor respectively.
The tumor inhibitory efficacy of compounds was evaluated by TGI (%). TGI (%) reflects the tumor growth inhibition rate. Calculation of TGI (%): TGI (%)=[1−(Average tumor volume at the end of administration in a certain treatment group−Average tumor volume at the beginning of administration in this treatment group)/(Average tumor volume at the end of treatment in the vehicle control group−Average tumor volume at the beginning of treatment in the vehicle control group)]×100%.

human LSD1 [4] = target: T1, human LSD1; assay: Experiment 1B: in vitro LSD1 enzyme activity, enzyme-coupled fluorescence (HRP/Amplex Red), H3(1-21)K4me2 peptide 10 μM (Reaction Biology); format: biochemical; settings: histone H3(1-21)K4me2 peptide 10 μM
Summary of the method: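 Human LSD1 with 10 μM histone H3(1-21)K4me2 peptide; enzyme and substrate incubated 30 min before compound addition started the reaction. H2O2 detected via HRP/Amplex Red fluorescence (Ex/Em 535/590). IC50 from 10-point 3-fold dilutions starting at 10 μM.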

[5] = target: hERG potassium ion channels (Homo sapiens (Human), UniProt Q12809); assay: Experiment 4: hERG potassium ion channel inhibition, automated patch clamp (Qpatch), CHO-hERG cells; format: cell-based; settings: highest test concentration 40 μM
Protocol: Experiment 4: hERG Potassium Ion Channel Inhibition Assay
Experimental purpose: To test the effects of the test examples on hERG potassium ion channels using an automated patch clamp method.
4.1.1 CHO-hERG cells were cultured in a 175 cm^2 culture flask. When the cell density grew from 60% to 80%, the culture medium was removed. The cells were washed once with 7 mL of PBS (Phosphate Buffered Saline), and then 3 mL of Detachin cell dissociation reagent was added thereto for digestion.
4.1.2 After the digestion was completed, 7 mL of culture medium was added thereto for neutralization, then the mixture was centrifuged, the supernatant was aspirated, and then 5 mL of culture medium was added thereto for resuspension to ensure a cell density of 2×10^6/mL to 5×10^6/ML.
The single-cell high-resistance sealing and whole-cell modeling formation processes were all automatically completed by the Qpatch instrument of the Shanghai Institute of Materia Medica, Chinese Academy of Sciences. After obtaining the whole-cell recording modeling, the cells were clamped at −80 mV, and before a 5-second +40 mV depolarizing stimulus was given, a 50-millisecond −50 mV prepulse was first given, then the voltage was repolarized to −50 mV and holden for 5 seconds, and finally returned to −80 mV. This voltage stimulus was applied every 15 seconds, recorded for 2 minutes, and then the extracellular fluid was recorded for 5 minutes, and then the administration process was initiated, with compound concentrations starting at the lowest test concentration. The voltage stimulus was given for 2.5 minutes for each test concentration, and after all concentrations had been continuously given, 3 μM the positive control compound, Cisapride, was given. At least 3 cells were tested per concentration (n≥3).
4.4.1 The compound stock solution was diluted with DMSO, and 20 μL of DMSO solution was added with 10 μL of the compound stock solution, and serially diluted 3-fold to 6 DMSO concentrations.
4.4.2 4 μL of 6 DMSO concentrations of compounds were taken respectively and added to 396 μL of extracellular fluid, and the mixture was diluted 100-fold to 6 intermediate concentrations, then 80 μL of 6 intermediate concentrations of compounds was taken and added to 320 μL of extracellular fluid, and the mixture was diluted 5-fold to the final test concentration.
4.4.3 The highest test concentration was 40 μM, and the concentrations were respectively 40, 13.3, 4.4, 1.48, 0.494, and 0.165 μM for a total of six concentrations.
4.4.5 The preparation of the compound was completed by the Bravo instrument throughout the dilution process.
Experimental data were analyzed by GraphPad Prism 5.0 software.

Chain of hERG potassium ion channels (Q12809 whole entry): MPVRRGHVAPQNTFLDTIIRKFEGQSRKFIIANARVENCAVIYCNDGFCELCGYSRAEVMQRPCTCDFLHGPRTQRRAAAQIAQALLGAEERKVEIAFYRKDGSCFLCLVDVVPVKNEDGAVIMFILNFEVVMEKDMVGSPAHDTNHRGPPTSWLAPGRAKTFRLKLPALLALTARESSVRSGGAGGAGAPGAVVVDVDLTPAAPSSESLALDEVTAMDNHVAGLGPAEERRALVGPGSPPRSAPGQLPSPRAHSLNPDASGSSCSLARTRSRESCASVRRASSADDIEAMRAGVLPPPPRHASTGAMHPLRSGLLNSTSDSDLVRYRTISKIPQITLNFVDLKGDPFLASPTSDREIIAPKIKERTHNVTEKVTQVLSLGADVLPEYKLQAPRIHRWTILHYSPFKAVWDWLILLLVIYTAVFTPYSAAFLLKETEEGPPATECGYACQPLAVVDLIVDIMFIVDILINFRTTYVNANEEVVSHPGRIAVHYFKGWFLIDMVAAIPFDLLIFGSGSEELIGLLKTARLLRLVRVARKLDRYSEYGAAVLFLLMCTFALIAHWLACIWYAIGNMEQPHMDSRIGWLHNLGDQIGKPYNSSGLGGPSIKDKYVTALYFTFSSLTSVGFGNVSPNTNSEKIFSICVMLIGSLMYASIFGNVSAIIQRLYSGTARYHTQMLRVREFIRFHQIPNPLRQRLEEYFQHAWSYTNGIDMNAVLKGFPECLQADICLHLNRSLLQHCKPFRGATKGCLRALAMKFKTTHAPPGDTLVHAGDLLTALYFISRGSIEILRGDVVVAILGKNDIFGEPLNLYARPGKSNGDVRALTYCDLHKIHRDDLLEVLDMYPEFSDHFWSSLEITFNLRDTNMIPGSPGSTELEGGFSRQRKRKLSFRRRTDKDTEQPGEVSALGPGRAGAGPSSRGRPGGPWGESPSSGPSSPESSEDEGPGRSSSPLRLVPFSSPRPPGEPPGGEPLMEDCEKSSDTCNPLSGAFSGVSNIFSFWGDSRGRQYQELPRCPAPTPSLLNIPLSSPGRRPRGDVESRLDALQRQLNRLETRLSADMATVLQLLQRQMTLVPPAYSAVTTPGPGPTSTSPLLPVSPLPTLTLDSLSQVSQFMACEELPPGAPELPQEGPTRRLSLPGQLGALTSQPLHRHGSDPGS

Structure (SMILES) | IC50 (human LSD1 [1]) [nM] | clearance ([2]; female CD-1 mice) [mL/min/kg] | half-life ([2]; female CD-1 mice) [h] | Vd ([2]; female CD-1 mice) [L/kg] | bioavailability ([2]; female CD-1 mice) [%] | AUC(0-t) ([2]; female CD-1 mice) [µM·h] | Cmax ([2]; female CD-1 mice) [nM] | IC50 (NCI-H1417 cells) [nM] | other results
COc1ccc(-c2sc(C(=O)N3C4CCC3C(N)C4)cc2-c2ccc(C#N)c(F)c2)cc1F (racemic) [Hydrochloride of compound 2] | 122 | 19.6 | 5.23 | 7.9 | 47.7 | 1.43 | 209 | 1.75 | 
COc1ccc(-c2sc(C(=O)N3CCC[C@@H](N)C3)cc2-c2ccc(C#N)c(F)c2)cc1F [Hydrochloride of compound 1] | 82 | 17.8 | 5.59 | 7.66 | 47.2 | 1.56 | 245 | 6.88 | clearance ([2]; male CD-1 mice): 16.7 mL/min/kg; half-life ([2]; male CD-1 mice): 6.13 h; Vd ([2]; male CD-1 mice): 8.33 L/kg; bioavailability ([2]; male CD-1 mice): 53.9%; AUC(0-t) ([2]; male CD-1 mice): 2.24 µM·h; Cmax ([2]; male CD-1 mice): 176 nM
COc1ccc(-c2sc(C(=O)N3CCC(N)CC3)cc2-c2ccc(C#N)c(F)c2)cc1F [Hydrochloride of compound 4] | 110 |  |  |  |  |  |  | 30.1 | 
COc1ccc(-c2sc(C(=O)N3CCNCC3)cc2-c2ccc(C#N)c(F)c2)cc1F [Hydrochloride of compound 5] | 345 |  |  |  |  |  |  |  | 
COc1ccc(-c2sc(C(=O)N3CCCNCC3)cc2-c2ccc(C#N)c(F)c2)cc1F [Hydrochloride of compound 6] | 112 | 18 | 5.37 | 7.76 | 64 | 2.52 | 222 | 37.9 | 
COc1ccc(-c2sc(C(=O)N3CCCC[C@@H](N)C3)cc2-c2ccc(C#N)c(F)c2)cc1F [Hydrochloride of compound 8] | 120 |  |  |  |  |  |  | 8.73 | 
COc1ccc(-c2sc(C(=O)N3CC4CNCC4C3)cc2-c2ccc(C#N)c(F)c2)cc1F (stereo not shown) [Hydrochloride of compound 9] | 118 |  |  |  |  |  |  | 15.8 | 
COc1ccc(-c2sc(C(=O)N3CCC4(CCNC4)CC3)cc2-c2ccc(C#N)c(F)c2)cc1F [Hydrochloride of compound 10] | 192 |  |  |  |  |  |  | 22.4 | 
COc1ccc(-c2sc(C(=O)N3CC[C@@H](N)C3)cc2-c2ccc(C#N)c(F)c2)cc1F [Hydrochloride of compound 12] | 393 |  |  |  |  |  |  |  | 
COc1ccc(-c2sc(C(=O)NC3CC4CCC3N4)cc2-c2ccc(C#N)c(F)c2)cc1F (stereo not shown) [Hydrochloride of compound 15] | 310 |  |  |  |  |  |  |  | 
Cn1cc2cc(-c3sc(C(=O)N4CCC[C@@H](N)C4)cc3-c3ccc(C#N)c(F)c3)ccc2n1 [Hydrochloride of compound 36] |  | 37.3 | 2.01 | 4.71 | 49.6 | 0.971 | 224 | 1.17 | Mean tumor volume ± SEM (mm^3) (Day 28) ([3]; BID): 53 ± 3 mm^3; TGI (%) ([3]; BID): 109.13%; Mean tumor volume ± SEM (mm^3) (Day 28) ([3]; QD): 87 ± 11 mm^3; TGI (%) ([3]; QD): 99.65%; clearance ([2]; male CD-1 mice): 31.5 mL/min/kg; half-life ([2]; male CD-1 mice): 2.1 h; Vd ([2]; male CD-1 mice): 4.47 L/kg; bioavailability ([2]; male CD-1 mice): 33.9%; AUC(0-t) ([2]; male CD-1 mice): 0.742 µM·h; Cmax ([2]; male CD-1 mice): 148 nM; IC50 (human LSD1 [4]): 3.44 nM
CN[C@@H]1CCCN(C(=O)c2cc(-c3ccc(C#N)c(F)c3)c(-c3ccc4c(c3)nnn4CC(C)(C)O)s2)C1 [Hydrochloride of compound 121] |  |  |  |  |  |  |  | 7.7 | Mean tumor volume ± SEM (mm^3) (Day 28) ([3]; QD): 75 ± 4 mm^3; TGI (%) ([3]; QD): 103.19%; IC50 [5]: 20500 nM; IC50 (human LSD1 [4]): 14.3 nM
